For 20 molecules, melting point and IC50 results are on record in patent US7173129B2, “Sulfonamide-substituted chalcone derivatives and their use to treat diseases” (Athero Genics, Inc., priority 2003, dated 2007).

Molecules are shown by their SMILES.

One data set deals with VCAM-1. Put plainly: In Vitro VCAM-1 Assay (TNF-α stimulated endothelial cells, cell-surface ELISA). Type of data set: cell-based. As to conditions: primary human aortic (HAEC) or pulmonary (HPAEC) endothelial cells, TNF-α 1 ng/ml, approximately 16 hours, ELISA OD 450 nm. As for the experimental part: Cell Culture and compound dosing: Cultured primary human aortic (HAEC) or pulmonary (HPAEC) endothelial cells were obtained from Clonetics, Inc., and were used below passage 9. Cells were seeded in 96 well plates such that they would reach 90–95% confluency by the following day. On the following day the cells were stimulated with TNF-α (1 ng/ml) in the presence or absence of compounds dissolved in DMSO such that the final concentration of DMSO is 0.25% or less. To establish a dose curve for each compound, four concentrations in 2- to 5-fold increments were used. Cells were exposed to TNF-α and compounds for approximately 16 hours. The next day the cells were examined under microscope to score for visual signs of toxicity or cell stress.
Following 16 hr exposure to TNF-α and compound the media was discarded and the cells were washed once with Hanks Balanced Salt Solution (HBSS)/Phosphate buffered saline (PBS) (1:1). Primary antibodies against VCAM-1 (0.25 μg/ml in HBSS/PBS+5% FBS) were added and incubated for 30–60 minutes at 37° C. Cells were washed with HBSS/PBS three times, and secondary antibody Horse Radish Peroxidase (HRP)-conjugated goat anti-mouse IgG (1:500 in HBSS/PBS+5% FBS) were added and incubated for 30 minutes at 37° C. Cells were washed with HBSS/PBS four time and TMB substrate were added and incubated at room temperature in the dark until there was adequate development of blue color. The length of time of incubation was typically 5–15 minutes. 2N sulfuric acid was added to stop the color development and the data was collected by reading the absorbance on a BioRad ELISA plate reader at OD 450 nm. The results are expressed as IC50 values (the concentration (micromolar) of compound required to inhibit 50% of the maximal response of the control sample stimulated by TNF-α only).

Where [1] appears, read: Homo sapiens, Endothelial cell, 16 h.

A word on the melting point: it is the temperature, or range, at which the solid turns liquid. By IC50 is commonly meant the midpoint of a concentration-inhibition curve. On to `COc1cc(OC)c(-c2cc3ccccc3n2C)cc1/C=C/C(=O)c1ccc(S(=O)(=O)N(C)C)cc1` [Example 31, 4-{3E-[2,4-Dimethoxy-5-(1-methyl-1H-indol-2-yl)phenyl]acryloyl}-N,N-dimethylbenzenesulfonamide], for which the melting point lay within 120 to 122 °C. Moreover, the half-maximal inhibitory concentration (IC50) in the data set with VCAM-1 (setting [1]) is below 10 µM.
The like results for `COc1cc(OC)c(-c2cc3ccccc3[nH]2)cc1/C=C/C(=O)c1ccc(S(=O)(=O)N(C)C)cc1` [Example 32, 4-{3E-[5-(1H-Indol-2-yl)-2,4-dimethoxyphenyl]acryloyl}-N,N-dimethylbenzenesulfonamide] were, in that order, 158 to 162 °C and below 5 µM.
In turn, `COc1cc(OC)c(-c2cc3ccccc3n2C)cc1/C=C/C(=O)c1ccc(S(=O)(=O)NO[Si](C)(C)C(C)(C)C)cc1` [Example 33, 4-{3E-[2,4-Dimethoxy-5-(1-methyl-1H-indol-2-yl)phenyl]acryloyl}-N-(tert-butyldimethylsiloxy)benzenesulfonamide] registered a melting point of 129 to 131 °C. Besides, the IC50 in the data set on VCAM-1 (Endothelial cell) is above 10 µM.
Take `COc1cc(OC)c(-c2cc3ccccc3n2C)cc1/C=C/C(=O)c1ccc(S(=O)(=O)NO)cc1` [Example 34, 4-{3E-[2,4-Dimethoxy-5-(1-methyl-1H-indol-2-yl)phenyl]acryloyl}-N-hydroxybenzenesulfonamide]: the melting point was above 260 °C. The IC50 in the data set on VCAM-1 (setting [1]) was above 10 µM.
On the same counts, the results for `COc1cc(OC)c(-c2cc3ccccc3[nH]2)cc1/C=C/C(=O)c1ccc(S(=O)(=O)NC(=O)C(C)C)cc1` [Example 35, 4-{3E-[5-(1H-Indol-2-yl)-2,4-dimethoxyphenyl]acryloyl}-N-isobutyrylbenzenesulfonamide] are 243 to 245 °C (dec.) and below 5 µM.
On the same counts, the results for `CCCC(=O)NS(=O)(=O)c1ccc(C(=O)/C=C/c2cc(-c3cc4ccccc4n3C)c(OC)cc2OC)cc1` [Example 37, N-Butyryl-4-{3E-[2,4-dimethoxy-5-(1-methyl-1H-indol-2-yl)phenyl]acryloyl}benzenesulfonamide] are 144 to 146 °C and below 5 µM.
On the same counts, the results for `COc1cc(OC)c(N2CCCC2)cc1/C=C/C(=O)c1ccc(S(=O)(=O)Nc2cc(C)on2)cc1` [Example 38, 4-[3E-(2,4-Dimethoxy-5-pyrrolidin-1-yl-phenyl)acryloyl]-N-(5-methyl-isoxazol-3-yl)benzenesulfonamide] are 164 to 165 °C and below 5 µM.
In turn, `COc1cc(OCCCO)c(/C=C/C(=O)c2ccc(S(=O)(=O)Nc3cc(C)on3)cc2)cc1-c1cccs1` [Example 39, 4-{3E-[2-(3-Hydroxy-propoxy)-4-methoxy-5-thien-2-ylphenyl]acryloyl}-N-(5-methylisoxazol-3-yl)benzenesulfonamide] gave a melting point of 178 to 182 °C. In the data set on VCAM-1 (setting [1]), this molecule returned an IC50 below 5 µM.
On the same counts, the results for `COc1cc(OC)c(-c2cc3ccccc3[nH]2)cc1/C=C/C(=O)c1ccc(S(=O)(=O)NC(C)=O)cc1` [Example 42, N-Acetyl-4-{3E-[5-(1H-indol-2-yl)-2,4-dimethoxyphenyl]acryloyl}benzenesulfonamide] are 218 to 220 °C and above 10 µM.
In turn, `COc1cc(OC)c(-c2cc3ccccc3[nH]2)cc1/C=C/C(=O)c1ccc(S(=O)(=O)[N-]C(C)=O)cc1.[Na+]` [Example 43, N-Acetyl-4-{3E-[5-(1H-indol-2-yl)-2,4-dimethoxyphenyl]acryloyl}benzenesulfonamide sodium salt] showed a melting point of 240 to 250 °C. The half-maximal inhibitory concentration (IC50) in the data set on VCAM-1 (sodium salt) is below 5 µM.
`COc1cc(OC)c(-c2cccn2C)cc1/C=C/C(=O)c1ccc(S(=O)(=O)Nc2cc(C)on2)cc1` [Example 44, 4-{3E-[2,4-Dimethoxy-5-(1-methyl-1H-pyrrol-2-yl)phenyl]acryloyl}-N-(5-methyl-isoxazol-3-yl)benzenesulfonamide] gave a melting point of 113 to 115 °C. In the data set with VCAM-1 (setting [1]), this molecule displayed a concentration for half-maximal inhibition (IC50) below 5 µM.
On the same counts, the results for `CCC(=O)NS(=O)(=O)c1ccc(C(=O)/C=C/c2cc(-c3cc4ccccc4[nH]3)c(OC)cc2OC)cc1` [Example 45, 4-{3E-[5-(1H-Indol-2-yl)-2,4-dimethoxyphenyl]acryloyl}-N-propionyl-benzenesulfonamide] are 223 to 225 °C and below 5 µM.
On the same counts, the results for `COc1cc(OC)c(-c2cc3ccccc3[nH]2)cc1/C=C/C(=O)c1ccc(S(=O)(=O)NCCCn2ccnc2)cc1` [Example 50, N-(3-Imidazol-1-yl-propyl)-4-{3E-[5-(1H-indol-2-yl)-2,4-dimethoxy-phenyl]acryloyl}benzenesulfonamide] are 197 to 200 °C and above 10 µM.
In turn, `COc1cc(OC)c(-c2cc3ccccc3[nH]2)cc1/C=C/C(=O)c1ccc(S(=O)(=O)NCC(=O)O)cc1` [Example 51, (4-{3E-[5-(1H-Indol-2-yl)-2,4-dimethoxyphenyl]acryloyl}benzenesulfonylamino)acetic acid] registered a melting point of 189 to 190 °C. The molecule further came in with an IC50 with VCAM-1 (setting [1]) above 10 µM.
With `COc1cc(OC)c(N2CCCC2)cc1/C=C/C(=O)c1ccc(S(=O)(=O)Nc2ccccn2)cc1` [Example 52, 4-[3E-(2,4-Dimethoxy-5-pyrrolidin-1-yl-phenyl)-acryloyl]-N-pyridin-2-yl-benzenesulfonamide], the melting point was 124 to 128 °C. Further, in the data set with VCAM-1 (setting [1]), the IC50 was below 5 µM.
In turn, `COc1cc(OC)c(N2CCCC2)cc1/C=C/C(=O)c1ccc(S(=O)(=O)NCc2ccccn2)cc1` [Example 53, 4-[3E-(2,4-Dimethoxy-5-pyrrolidin-1-ylphenyl)acryloyl]-N-pyridin-2-ylmethylbenzenesulfonamide] yielded a melting point of 112 to 116 °C. For the same molecule, the IC50 with VCAM-1 (setting [1]) was below 5 µM.
On the same counts, the results for `COc1cc(OC)c(N2CCCC2)cc1/C=C/C(=O)c1ccc(S(=O)(=O)NCCCn2ccnc2)cc1` [Example 54, 4-[3E-(2,4-Dimethoxy-5-pyrrolidin-1-ylphenyl)acryloyl]-N-(3-imidazol-1-ylpropyl)benzenesulfonamide] are 140 to 143 °C and above 5 µM.
In the case of `COc1cc(OC)c(N2CCCC2)cc1/C=C/C(=O)c1ccc(S(=O)(=O)NCCCN2CCN(C)CC2)cc1` [Example 55, 4-[3E-(2,4-Dimethoxy-5-pyrrolidin-1-ylphenyl)acryloyl]-N-[3-(4-methyl-piperazin-1-yl)propyl]benzenesulfonamide], the melting point lay in the range of 64 to 68 °C. In the data set with VCAM-1 (setting [1]), this molecule had a concentration for half-maximal inhibition (IC50) above 10 µM.
The like results for `COc1cc(OC)c(N2CCCC2)cc1/C=C/C(=O)c1ccc(S(=O)(=O)NCC(=O)O)cc1` [Example 56, {4-[3E-(2,4-Dimethoxy-5-pyrrolidin-1-ylphenyl)acryloyl]benzenesulfonylamino}acetic acid] were, in that order, 155 to 158 °C and above 10 µM.
`COc1cc(OC)c(-c2cc3ccccc3[nH]2)cc1/C=C/C(=O)c1ccc(S(=O)(=O)Nc2ccccn2)cc1` [Example 57, 4-{3E-[5-(1H-Indol-2-yl)-2,4-dimethoxyphenyl]acryloyl}-N-pyridin-2-ylbenzenesulfonamide] had a melting point of 206 to 208 °C. The molecule also had an IC50 with VCAM-1 (setting [1]) below 5 µM.
